These results are taken from patent US20150238460A1, “Methods and Compositions For Treating Hepatocellular Carcinoma” (priority 2012, published 2015).

Experiment [1] has as its system advanced hepatocellular carcinoma. Conditions: Asian-Pacific trial, advanced HCC; cited from earlier work.
Experiment [2] has the same test system. The conditions noted are these: cited from earlier work.
Experiment [3] relates to advanced, unresectable HCC (various cancers in whole group). The experiment can be described thus: Phase I trial G-202-001, expansion group with modified dosing regimen. Format: in vivo, human. The conditions noted are these: fifth HCC patient. The source says:
Virtually all anti-cancer agents have the potential to cause infusion reactions, which are reactions that may be allergic or non-allergic in nature and not related to the known toxicity profile of the agent. Infusion reactions are usually thought of as hypersensitivity reactions, despite the absence of an allergic component in many cases.
Endpoints evaluated in the expansion group included safety, tumor response rate, progression-free survival, and overall survival. Additional secondary endpoints included exploration of pharmacodynamic markers associated with various cancers. Assessments were routinely performed during therapy and following therapy if toxicity was the reason therapy was discontinued.
The only FDA-approved therapy for patients with unresectable HCC is sorafenib tosylate, otherwise known as Nexavar® and/or by the chemical name: 4-(4-{3-[4-Chloro-3-(trifluoromethyl)phenyl]ureido}phenoxy)N2methylpyridine-2-carboxamide 4-methylbenzenesulfonate.

In experiment [4] the test system is progressive advanced hepatocellular carcinoma (HCC). Conditions: two of four patients, no improvement on therapy.
The test system of experiment [5] is Sarcoplasmic/Endoplasmic Reticulum Calcium ATPase (SERCA) pump. Conditions: cited from earlier work.

Like-named read-outs stand apart in the source and are kept apart here.

Regarding `CNC(=O)c1cc(Oc2ccc(NC(=O)Nc3ccc(Cl)c(C(F)(F)F)c3)cc2)ccn1.Cc1ccc(S(=O)(=O)O)cc1` [sorafenib, 4-(4-{3-[4-Chloro-3-(trifluoromethyl)phenyl]ureido}phenoxy)N2methylpyridine-2-carboxamide 4-methylbenzenesulfonate], in experiment [1], the median overall survival is reported as 6.5 months and the “time to radiologic progression” value is 2.8 months. In experiment [2] (SHARP Trial, patients with advanced HCC, no prior systemic treatment), the “time to radiologic progression” value was 5.5 months. In addition, the overall survival in experiment [2] (SHARP Trial, patients with advanced HCC) is 10.7 months. Besides, the “average time to disease progression after beginning sorafenib treatment” value in experiment [2] (clinical trial of 602 patients with HCC (Llovet 2008)) is “approximately six”. Further, the “disease progression on prior sorafenib treatment after” value in experiment [3] (before G-202) stood at 3 months.

Take “8-O-(12-aminododecanoyl)-debutanoyl-thapsigargin aspartate-glutamate-γ-glutamate-γ-glutamate-γ-glutamate OH [G-202]”: in experiment [4], the “disease progression reached after number of cycles” value was “no more than two”. Besides, in experiment [3], the “time without disease progression after ceasing treatment” value is recorded as “more than four”.

With `C/C=C(/C)C(=O)O[C@H]1C(C)=C2[C@H]([C@@H]1OC(=O)CCCCCCC)[C@@](C)(OC(C)=O)C[C@H](OC(=O)CCC)[C@@]1(O)[C@H]2OC(=O)[C@@]1(C)O` [Thapsigargin], the “affinity of binding to SERCA pump” value in experiment [5] is “high affinity”.
